The record followed here is patent US20250376464A1 (Trawsfynydd Therapeutics, Inc., priority 2022, published 2025).

By IC50 is commonly meant the concentration that inhibits the measured activity by half.

SMILES strings stand for the structures.

The target of the experiment is SARS-CoV2-Mpro (Severe acute respiratory syndrome coronavirus 2 (2019-nCoV) (SARS-CoV-2), UniProt P0DTD1). Kind of experiment: Primary assay: SARS-CoV2-Mpro enzymatic activity inhibition. As to conditions: enzyme preincubated with compound for 20 min; slope of linear portion of signal. The experiment is classed as biochemical. On the procedure:
Example A. Primary Assay Used to Determine Potency of SARS-CoV2-Mpro Enzymatic Activity Inhibition
• (1) Deliver 2× Enzyme • (2) Deliver buffer into No Enzyme wells • (3) Deliver compounds in 100% DMSO by using Acoustic technology (Echo550; nanoliter range) • (4) Incubate for 20 min • (5) Deliver 2× Substrate to initiate the reaction • (6) Spin & shake, start measuring in EnVision at rt; 5 min interval for 25 (2 hours) • (7) Analyze data by taking slope (signal/time) of linear portion of measurement • (8) Slope is calculated by using Excel, and curve fits are performed using Prism software.
The % inhibition was then used to calculate the IC50 values. The IC50 values are shown in Table A, wherein “A” corresponds to IC50<10.0 nm, “B” corresponds to 10.0 nm≤IC50<50.0 nm, “C” corresponds to 50.0 nm≤IC50<100.0 nm, “D” corresponds to 100.0 nm≤IC50<500.0 nm, and “E” corresponds to 500.0 nm≤IC50<1000.0 nm, and “F” corresponds to 1000.0 nm≤IC50.
`CC(C)(C)[C@H](NC(=O)C(F)(F)F)C(=O)N1CCC2(CC2)CC1C(=O)N[C@H](C#N)C[C@@H]1CCNC1=O` (mixture of isomers) [Compound 206, N—((S)-1-Cyano-2-((S)-2-oxopyrrolidin-3-yl)ethyl)-6-((S)-3,3-dimethyl-2-(2,2,2-trifluoroacetamido)butanoyl)-6-azaspiro[2.5]octane-5-carboxamide]: the 50% inhibitory concentration (IC50) lay in the range of 10 to 50 nM.
As to `CC(C)(C)[C@H](NS(C)(=O)=O)C(=O)N1C[C@H]2C([C@H]1C(=O)N[C@H](C#N)C[C@@H]1CCNC1=O)C2(C)C` (stereo in doubt) [Compound 201, (1R,2S,5S)—N—((S)-1-Cyano-2-((S)-2-oxopyrrolidin-3-yl)ethyl)-3-((S)-3,3-dimethyl-2-(methylsulfonamido)butanoyl)-6,6-dimethyl-3-azabicyclo[3.1.0]hexane-2-carboxamide], the IC50 was in the range of 10 to 50 nM.
In the case of `CC(C)(C)[C@H](NS(=O)(=O)CC(F)(F)F)C(=O)N1C[C@H]2C([C@H]1C(=O)N[C@H](C#N)C[C@@H]1CCNC1=O)C2(C)C` (stereo in doubt) [Compound 209, (1R,2S,5S)—N-[(1S)-1-cyano-2-[(3S)-2-oxopyrrolidin-3-yl]ethyl]-3-[(2S)-3,3-dimethyl-2-(2,2,2-trifluoroethylsulfonylamino)butanoyl]-6,6-dimethyl-3-azabicyclo[3.1.0]hexane-2-carboxamide], the IC50 is 10 to 50 nM.
Turning to `CC(C)(C)[C@H](NC(=O)C(F)(F)F)C(=O)N1C[C@H]2C([C@H]1C(=O)N[C@H](C#N)CC1C(=O)Nc3ccccc31)C2(C)C` (stereo in doubt) [Compound 217, (1R,2S,5S)—N-((1S)-1-Cyano-2-(2-oxoindolin-3-yl)ethyl)-3-((S)-3,3-dimethyl-2-(2,2,2-trifluoroacetamido)butanoyl)-6,6-dimethyl-3-azabicyclo[3.1.0]hexane-2-carboxamide], the half-inhibitory concentration (IC50) is < 10 nM.
With `CC(C)(C)[C@H](NC(=O)C(F)(F)F)C(=O)N1C[C@H]2C([C@H]1C(=O)NC(C#N)CC1(F)C(=O)Nc3ccccc31)C2(C)C` (stereo in doubt) [Compound 227, (1S,2S,5S)-N-[1-cyano-2-(3-fluoro-2-oxo-indolin-3-yl)ethyl]-3-[(2S)-3,3-dimethyl-2-[(2,2,2-trifluoroacetyl)amino]butanoyl]-6,6-dimethyl-3-azabicyclo[3.1.0]hexane-2-carboxamide] the figure was 10 to 50 nM; with `CC(C)(C)[C@H](NC(=O)C(F)(F)F)C(=O)N1C[C@H]2C(C1C(=O)N[C@H](C#N)CC1(F)C(=O)Nc3ccccc31)C2(C)C` (stereo in doubt) [Compound 228, (1S,2S,5S)-N-[(1S)-1-cyano-2-(3-fluoro-2-oxo-indolin-3-yl)ethyl]-3-[(2S)-3,3-dimethyl-2-[(2,2,2-trifluoroacetyl)amino]butanoyl]-6,6-dimethyl-3-azabicyclo[3.1.0]hexane-2-carboxamide], 10 to 50 nM.
Take `Cc1ccc2c(c1)C(F)(CC(C#N)NC(=O)C1C3[C@H](CN1C(=O)[C@@H](NC(=O)C(F)(F)F)C(C)(C)C)C3(C)C)C(=O)N2` (stereo in doubt) [Compound 229, (1S,2S,5S)-N-[1-cyano-2-(3-fluoro-5-methyl-2-oxo-indolin-3-yl)ethyl]-3-[(2S)-3,3-dimethyl-2-[(2,2,2-trifluoroacetyl)amino]butanoyl]-6,6-dimethyl-3-azabicyclo[3.1.0]hexane-2-carboxamide]: the IC50 lay in the range of 10 to 50 nM.
For the molecule `Cc1ccc2c(c1)C(CC(C#N)NC(=O)C1C3[C@H](CN1C(=O)[C@@H](NC(=O)C(F)(F)F)C(C)(C)C)C3(C)C)C(=O)N2` (stereo in doubt) [Compound 230, (1S,2S,5S)-N-[1-cyano-2-(5-methyl-2-oxo-indolin-3-yl)ethyl]-3-[(2S)-3,3-dimethyl-2-[(2,2,2-trifluoroacetyl)amino]butanoyl]-6,6-dimethyl-3-azabicyclo[3.1.0]hexane-2-carboxamide], the half-maximal inhibitory concentration (IC50) was in the range of 10 to 50 nM.
For the molecule `CN(C(=O)[C@@H]1C2[C@H](CN1C(=O)[C@@H](NC(=O)C(F)(F)F)C(C)(C)C)C2(C)C)[C@H](C#N)CC1C(=O)Nc2ccccc21` (stereo in doubt) [Compound 231, (1S,2S,5S)-N-[(1S)-1-cyano-2-(2-oxoindolin-3-yl)ethyl]-3-[(2S)-3,3-dimethyl-2-[(2,2,2-trifluoroacetyl)amino]butanoyl]-N,6,6-trimethyl-3-azabicyclo[3.1.0]hexane-2-carboxamide], the IC50 was in the range of 50 to 100 nM.
For the molecule `CC(C)(C)[C@H](NC(=O)C(F)(F)F)C(=O)N1C[C@H]2C([C@H]1C(=O)N[C@H](C#N)CC1C(=O)Nc3ccc(Br)cc31)C2(C)C` (stereo in doubt) [Compound 232, (1S,2S,5S)-N-[(1S)-2-(5-bromo-2-oxo-indolin-3-yl)-1-cyano-ethyl]-3-[(2S)-3,3-dimethyl-2-[(2,2,2-trifluoroacetyl)amino]butanoyl]-6,6-dimethyl-3-azabicyclo[3.1.0]hexane-2-carboxamide], the IC50 was 10 to 50 nM.
Consider `CC(C)(C)[C@H](NC(=O)C(F)(F)F)C(=O)N1C[C@H]2C([C@H]1C(=O)N[C@H](C#N)CC1C(=O)Nc3cc(Br)ccc31)C2(C)C` (stereo in doubt) [Compound 233, (1S,2S,5S)-N-[(1S)-2-(6-bromo-2-oxo-indolin-3-yl)-1-cyano-ethyl]-3-[(2S)-3,3-dimethyl-2-[(2,2,2-trifluoroacetyl)amino]butanoyl]-6,6-dimethyl-3-azabicyclo[3.1.0]hexane-2-carboxamide], for which the IC50 lay within 50 to 100 nM.
Consider `Cc1cccc2c1C(C[C@@H](C#N)NC(=O)[C@@H]1C3[C@H](CN1C(=O)[C@@H](NC(=O)C(F)(F)F)C(C)(C)C)C3(C)C)C(=O)N2` (stereo in doubt) [Compound 234, (1S,2S,5S)-N-[(1S)-1-cyano-2-(4-methyl-2-oxo-indolin-3-yl)ethyl]-3-[(2S)-3,3-dimethyl-2-[(2,2,2-trifluoroacetyl)amino]butanoyl]-6,6-dimethyl-3-azabicyclo[3.1.0]hexane-2-carboxamide], for which the IC50 was 500 to 1000 nM.
For `CC(C)(C)[C@H](NC(=O)C(F)(F)F)C(=O)N1C[C@H]2C([C@H]1C(=O)N[C@H](C#N)CC1C(=O)Nc3c(Cl)cccc31)C2(C)C` (stereo in doubt) [Compound 235, (1S,2S,5S)-N-[(1S)-2-(7-chloro-2-oxo-indolin-3-yl)-1-cyano-ethyl]-3-[(2S)-3,3-dimethyl-2-[(2,2,2-trifluoroacetyl)amino]butanoyl]-6,6-dimethyl-3-azabicyclo[3.1.0]hexane-2-carboxamide] the value was < 10 nM.
Consider `CC(C)(C)[C@H](NC(=O)C(F)(F)F)C(=O)N1C[C@H]2C([C@H]1C(=O)N[C@H](C#N)CC1C(=O)Nc3ccc(F)cc31)C2(C)C` (stereo in doubt) [Compound 236, (1S,2S,5S)-N-[(1S)-1-cyano-2-(5-fluoro-2-oxo-indolin-3-yl)ethyl]-3-[(2S)-3,3-dimethyl-2-[(2,2,2-trifluoroacetyl)amino]butanoyl]-6,6-dimethyl-3-azabicyclo[3.1.0]hexane-2-carboxamide], for which the IC50 lay within 10 to 50 nM.
For `CC(C)(C)[C@H](NS(C)(=O)=O)C(=O)N1C[C@H]2C([C@H]1C(=O)N[C@H](C#N)CC1C(=O)Nc3ccccc31)C2(C)C` (stereo in doubt) [Compound 237, (1S,2S,5S)-N-[(1S)-1-cyano-2-(2-oxoindolin-3-yl)ethyl]-3-[(2S)-2-(methanesulfonamido)-3,3-dimethyl-butanoyl]-6,6-dimethyl-3-azabicyclo[3.1.0]hexane-2-carboxamide] the value was < 10 nM.
For `CC(C)(C)[C@H](NS(C)(=O)=O)C(=O)N1C[C@H]2C([C@H]1C(=O)N[C@H](C#N)C[C@@H]1C(=O)Nc3ccccc31)C2(C)C` (stereo in doubt) [Compound 238, (1S,2S,5S)-N-[(1S)-1-cyano-2-(2-oxoindolin-3-yl)ethyl]-3-[(2S)-2-(methanesulfonamido)-3,3-dimethyl-butanoyl]-6,6-dimethyl-3-azabicyclo[3.1.0]hexane-2-carboxamide] the value was < 10 nM.
`CC(C)(C)[C@H](NC(=O)C(F)(F)F)C(=O)N1C[C@H]2C([C@H]1C(=O)N[C@H](C#N)C[C@]1(C)C(=O)Nc3ccccc31)C2(C)C` (stereo in doubt) [Compound 239, (1S,2S,5S)-N-[1-cyano-2-(3-methyl-2-oxo-indolin-3-yl)ethyl]-3-[(2S)-3,3-dimethyl-2-[(2,2,2-trifluoroacetyl)amino]butanoyl]-6,6-dimethyl-3-azabicyclo[3.1.0]hexane-2-carboxamide]: the half-maximal inhibitory concentration (IC50) was ≥ 1000 nM.
With `COC(=O)N[C@H](C(=O)N1C[C@H]2C([C@H]1C(=O)N[C@H](C#N)CC1C(=O)Nc3ccccc31)C2(C)C)C(C)(C)C` (stereo in doubt) [Compound 243, Methyl N-[(1S)-1-[(1S)-2-[[(1S)-1-cyano-2-(2-oxoindolin-3-yl)ethyl]carbamoyl]-6,6-dimethyl-3-azabicyclo[3.1.0]hexane-3-carbonyl]-2,2-dimethyl-propyl]carbamate] the figure was < 10 nM.
For the molecule `CCOC(=O)N[C@H](C(=O)N1C[C@H]2C([C@H]1C(=O)N[C@H](C#N)CC1C(=O)Nc3ccccc31)C2(C)C)C(C)(C)C` (stereo in doubt) [Compound 244, Ethyl N-[(1S)-1-[(1S)-2-[[(1S)-1-cyano-2-(2-oxoindolin-3-yl)ethyl]carbamoyl]-6,6-dimethyl-3-azabicyclo[3.1.0]hexane-3-carbonyl]-2,2-dimethyl-propyl]carbamate], the IC50 lay in the range of 10 to 50 nM.
